In test [1] the test system is Naegleria fowleri. The test is described as follows: Antimicrobial activity against Naegleria fowleri Lee (M67) at day 2. The test is classed as functional, organism-based. The following applies: 48 h.
Test [2] deals with Mus musculus. The test is described as follows: Effect on mean time to death in Naegleria fowleri Lee (M67) infected CD1 mouse at 2.5 mg/kg, ip in presence of azithromycin. The test is classed as functional, organism-based. On the set-up: dose 2.5 mg/kg.
In test [3] the test system is Naegleria fowleri. As to the kind of experiment: Antimicrobial activity against Naegleria fowleri Lee (M67) in presence of amphotericin B at 1:3 ratio on day 3. The test is classed as functional.
Test [4] relates to Naegleria fowleri. As to the kind of experiment: Antimicrobial activity against Naegleria fowleri Lee (M67) in presence of amphotericin B at 1:1 ratio on day 3. The test is classed as functional.
For test [5], the system named is Naegleria fowleri. As to the kind of experiment: Antimicrobial activity against Naegleria fowleri Lee (M67) in presence of amphotericin B at 1:3 ratio on day 2. The test is classed as functional.
Test [6] deals with Naegleria fowleri. As to the kind of experiment: Antimicrobial activity against Naegleria fowleri Lee (M67) in presence of amphotericin B at 1:1 ratio on day 2. It counts as functional.
Test [7] concerns Mus musculus. As to the kind of experiment: Protection against Naegleria fowleri Lee (M67) infection in CD1 mouse at 2.5 mg/kg, ip in presence of azithromycin. To be noted: route intraperitoneal. It counts as functional.
Test [8] relates to Mus musculus. The test is described as follows: Protection against Naegleria fowleri Lee (M67) infection in CD1 mouse at 2.5 mg/kg/day, ip. The test is classed as functional. To be noted: route intraperitoneal.
Test [9] relates to Naegleria fowleri. The test is described as follows: Antimicrobial activity against Naegleria fowleri Lee (M67) at day 3. It counts as functional, organism-based. The following applies: 72 h.
Test [10] has as its system Naegleria fowleri. The test is described as follows: Antimicrobial activity against Naegleria fowleri Lee (M67) in presence of amphotericin B at 3:1 ratio on day 3. It counts as functional.
Test [11] deals with Naegleria fowleri. The test is described as follows: Antimicrobial activity against Naegleria fowleri Lee (M67) in presence of amphotericin B at 3:1 ratio on day 2. The test is classed as functional.
In test [12] the test system is Mus musculus. As to the kind of experiment: Effect on mortality in Naegleria fowleri Lee (M67) infected CD1 mouse at 2.5 mg/kg/day, ip. The test is classed as functional. To be noted: route intraperitoneal.
Test [13] deals with Mus musculus. The test is described as follows: Effect on mortality in Naegleria fowleri Lee (M67) infected CD1 mouse at 2.5 mg/kg, ip in presence of azithromycin. It counts as functional. The following applies: route intraperitoneal.
Test [14] has as its system Mus musculus. The test is described as follows: Effect on mean time to death in Naegleria fowleri Lee (M67) infected CD1 mouse at 2.5 mg/kg/day, ip. The test is classed as functional. To be noted: route intraperitoneal.
For test [15], the system named is Naegleria fowleri. As to the kind of experiment: Antimicrobial activity against Naegleria fowleri Lee (M67) in presence of azithromycin at 3:1 ratio on day 3. The test is classed as functional.
For test [16], the system named is Naegleria fowleri. As to the kind of experiment: Antimicrobial activity against Naegleria fowleri Lee (M67) in presence of azithromycin at 3:1 ratio on day 2. It counts as functional.
Test [17] deals with Naegleria fowleri. The test is described as follows: Antimicrobial activity against Naegleria fowleri Lee (M67) in presence of azithromycin at 1:1 ratio on day 3. The test is classed as functional.
For test [18], the system named is Mus musculus. As to the kind of experiment: Protection against Naegleria fowleri Lee (M67) infection in CD1 mouse at 25 mg/kg/day, ip. It counts as functional. The following applies: route intraperitoneal.
In test [19] the test system is Naegleria fowleri. The test is described as follows: Antimicrobial activity against Naegleria fowleri Lee (M67) in presence of azithromycin at 1:3 ratio on day 2. It counts as functional.
Test [20] has as its system Naegleria fowleri. The test is described as follows: Antimicrobial activity against Naegleria fowleri Lee (M67) in presence of azithromycin at 1:1 ratio on day 2. It counts as functional.
The subject of test [21] is Mus musculus. The test is described as follows: Effect on mean time to death in Naegleria fowleri Lee (M67) infected CD1 mouse at 25 mg/kg/day, ip. The test is classed as functional. To be noted: route intraperitoneal.
Test [22] concerns Mus musculus. As to the kind of experiment: Effect on mortality in Naegleria fowleri Lee (M67) infected CD1 mouse at 25 mg/kg/day, ip. To be noted: route intraperitoneal. It counts as functional.
Test [23] concerns Naegleria fowleri. As to the kind of experiment: Antimicrobial activity against Naegleria fowleri Lee (M67) in presence of azithromycin at 1:3 ratio on day 3. The test is classed as functional.

For 2 molecules, IC50, Activity and FIC50 results are on record in ChEMBL document CHEMBL1142142, “Synergistic activities of azithromycin and amphotericin B against Naegleria fowleri in vitro and in a mouse model of primary amebic meningoencephalitis” (Antimicrob Agents Chemother, 2007).

A word on the IC50: it is the midpoint of a concentration-inhibition curve.

The source made the active and inactive calls. The calls are words filed in the database; no cut-off is given here.

Turning to `C[C@@H]1[C@H](O)[C@@H](C)/C=C/C=C/C=C/C=C/C=C/C=C/C=C/[C@H](O[C@@H]2O[C@H](C)[C@@H](O)[C@H](N)[C@@H]2O)C[C@@H]2O[C@](O)(C[C@@H](O)C[C@@H](O)[C@H](O)CC[C@@H](O)C[C@@H](O)CC(=O)O[C@H]1C)C[C@H](O)[C@H]2C(=O)O` [AMPHOTERICIN B], the IC50 with Naegleria fowleri [1] is 0.0264 µM; in the test on Naegleria fowleri [9], 0.0183 µM. Also, the outcome in the test with Mus musculus [2] was Active. Moreover, the FIC50 in the test with Naegleria fowleri [3] worked out at 0.167; with Naegleria fowleri [4] it was 0.309; in the test with Naegleria fowleri [5] it was 0.311; in the test with Naegleria fowleri [6], 0.241; in the test on Naegleria fowleri [10] it was 0.303; in the test with Naegleria fowleri [11], 0.254. Besides, the Activity with Mus musculus [7] is 100%; with Mus musculus [8] it was 27%; in the test on Mus musculus [12], 55%; in the test with Mus musculus [13], 0%; in the test with Mus musculus [14], 7 days.

For the molecule `CC[C@H]1OC(=O)[C@H](C)[C@@H](O[C@H]2C[C@@](C)(OC)[C@@H](O)[C@H](C)O2)[C@H](C)[C@@H](O[C@@H]2O[C@H](C)C[C@H](N(C)C)[C@H]2O)[C@](C)(O)C[C@@H](C)CN(C)[C@H](C)[C@@H](O)[C@]1(C)O` [AZITHROMYCIN], the FIC50 came out at 0.103 with Naegleria fowleri [15]; 0.088 with Naegleria fowleri [16]; 0.308 with Naegleria fowleri [17]; 0.464 in the test with Naegleria fowleri [19]; 0.238 with Naegleria fowleri [20]; 0.55 in the test with Naegleria fowleri [23]. For the same molecule, the IC50 was 0.0026 µM with Naegleria fowleri [1] and 0.0031 µM in the test with Naegleria fowleri [9]. For the same molecule, the values for the Activity in the test on Mus musculus [18], in the test with Mus musculus [21] and in the test with Mus musculus [22] were 40%, 12.4 days and 45%, respectively.
